{"source": "patent US20260250412A1", "about": "“COMBINATION OF ANTIBODY-DRUG CONJUGATE AND ANTI-PD-1 ANTIBODY, AND USE THEREOF” (GENEQUANTUM HEALTHCARE (SUZHOU) CO., LTD., priority 2023, published 2026)", "key": {"[1]": {"system": "BxPC-3 mouse xenograft tumor", "test": "In vivo efficacy, BxPC-3 mouse xenograft tumor", "set-up": "species or system BALB/c nude mice", "conditions": "for T/C (%) / TGI (%) / Tumor volume (mm^3) Day 0 / tumor growth inhibition (in words): 3 mg/kg; for Tumor volume (mm^3) Day 0: baseline at grouping", "method": "(§1) I. The logarithmic growth phase BxPC-3 were collected and the cell density was adjusted to 10×10^6 cells/mL with Matrigel buffer (PBS:Matrigel=1:1). 0.2 mL of the prepared BxPC-3 cell suspension was subcutaneously injected into the right scapula of SPF female BALB/c nude mice aged 6-8 weeks.\n(§2) II. The tumor diameter was measured with a vernier caliper and the tumor volume was calculated according to the formula V=0.5a×b^2 (where a is the longest diameter of the tumor and b is the shortest diameter of the tumor). […] Animals in each group were administered by tail vein injection, and the control group was given an equal volume of vehicle. […] T/C and TGI values were calculated using tumor volume. The calculation formula is as follows: T/C %=TRTV/CRTV×100% (TRTV: RTV of the treatment group; CRTV: RTV of the vehicle control group). The relative tumor volume (RTV) was calculated based on the results of tumor measurement, and the calculation formula was RTV=Vt/V0, where V0 was the average tumor volume measured at the time of grouping (i.e., D0), Vt was the average tumor volume at one measurement, and TRTV and CRTV took the same day of data.\n6 days after cell inoculation, when the average tumor volume was about 159 mm^3, animals were randomly divided into vehicle control group, ADC-5 3 mg/kg group, ADC-6 3 mg/kg group, and DS1062a 3 mg/kg group, with 6 animals in each group."}, "[2]": {"system": "NCI-N87 mouse xenograft tumor", "test": "In vivo efficacy, NCI-N87 mouse xenograft tumor", "set-up": "species or system BALB/c nude mice", "conditions": "3 mg/kg; for Tumor volume (mm^3) Day 0: baseline at grouping"}, "[3]": {"system": "Trop2-positive cells BxPC-3 and Trop2-negative cells HepG2", "test": "Bystander killing in BxPC-3/HepG2 co-culture assay (BxPC-3:HepG2=4:1)", "assay_type": "cell-based, human", "conditions": "10 nM, 96 h", "method": "After the treatment, the cells were moved to the incubator and incubated for 96 h. After the incubation, cells were digested, and washed once with 1×PBS, then transferred to a flow tube, and centrifuged at 2000 rpm for 3 min. The supernatant was then discarded, and the cell amount and cell viability were detected. […] The cells were washed with 1×PBS, the supernatant was discarded after centrifugation, 200 μL of 5 μg/mL human IgG Fe antibody was added, and the resulting cells were continued to incubate at 4° C. for 30 min after mixing. Finally, the cells were washed with 1×PBS, the supernatant was discarded after centrifugation, and the cells were resuspended in PBS, detected by flow cytometry and analyzed by FlowJo software."}, "[4]": {"system": "human breast cancer BR-05-0028 model", "test": "In vivo efficacy, human breast cancer BR-05-0028 mouse xenograft tumor", "set-up": "species or system BALB/c nude mice", "method": "as §2\nThe human breast cancer BR-05-0028 model (IHC 3±) was derived from tumor samples resected in clinical surgery. The tumor samples were inoculated into nude mice at the P0 generation, and the tumor tissue used in this example was the P5 generation. Tumor tissue with a volume of about 30 mm^3 was subcutaneously inoculated into the right back dorsum of SPF female BALB/c nude mice aged 6-8 weeks."}, "[5]": {"system": "FaDu mouse xenograft tumor", "test": "In vivo efficacy, FaDu mouse xenograft tumor", "set-up": "species or system BALB/c nude mice", "conditions": "for Tumor volume (mm^3) Day 0: baseline at grouping", "method": "as §1\nII. The tumor diameter was measured with a vernier caliper and the tumor volume was calculated according to the formula V=0.5a×b^2 (where a is the longest diameter of the tumor and b is the shortest diameter of the tumor). […] Animals in each group were administered by tail vein injection, and the control group was given an equal volume of vehicle. The tumor volume of animals in each group was measured twice a week within 35 days after administration, and the tumor volume of animals on day 35 was compared between groups. T/C and TGI values were calculated using tumor volume. The calculation formula is as follows: T/C %=TRTV/CRTV×100% (TRTV: RTV of the treatment group; CRTV: RTV of the vehicle control group). The relative tumor volume (RTV) was calculated based on the results of tumor measurement, and the calculation formula was RTV=Vt/V0, where V0 was the average tumor volume measured at the time of grouping (i.e., D0), Vt was the average tumor volume at one measurement, and TRTV and CRTV took the same day of data.\nThe BxPC-3 pancreatic cancer cells in Example 3.3.1 were replaced with human pharyngeal squamous cells carcinoma FaDu, and 10 days after cell inoculation, when the average tumor volume was about 119 mm^3, animals were randomly divided into vehicle control group, […], with 6 animals in each group."}, "[6]": {"system": "Trop2 positive cancer cells FaDu", "test": "Cytotoxicity assay, CellTiter-Glo, 168 h, FaDu", "assay_type": "cell-based, human", "method": "(§3) In brief, 3000 to 5000 cells were plated in 96-well plates, and cells were able to attach overnight. Cells were treated with indicated drugs with various concentrations for 168 h. Cell viabilities were examined by CellTiter-Glo® Luminescent Cell Viability Assay, and percentage of cell viability was calculated."}, "[7]": {"system": "Trop2 positive cancer cells BxPC-3", "test": "Cytotoxicity assay, CellTiter-Glo, 168 h, BxPC-3", "assay_type": "cell-based, human", "method": "as §3"}, "[8]": {"conditions": "Table 15, single dose, 5 mg/kg, Day 21"}}, "note": "Values joined by “and” are separate entries in the source; they are usually repeats but may differ in a detail not shown here. Equal entries are not always repeated."}
{"substance": "DS1062a", "values": [{"measurement": "Tumor volume (mm^3) Day 35", "setting": "[1]; Table 13, 3 mg/kg, tail vein injection", "value": "847 mm^3 and 847 ± 104 mm^3"}, {"measurement": "T/C (%)", "setting": "[1]; Table 13, Day 35", "value": 64.05, "unit": "%"}, {"measurement": "TGI (%)", "setting": "[1]; Table 13, Day 35", "value": 40.54, "unit": "%"}, {"measurement": "Tumor volume (mm^3) Day 0", "setting": "[1]; Table 13, tail vein injection", "value": "151 ± 12", "unit": "mm^3"}, {"measurement": "Tumor volume (mm^3) Day 28", "setting": "[1]; Table 16, 3 mg/kg", "value": "540 mm^3 and 540 ± 74 mm^3"}, {"measurement": "T/C (%)", "setting": "[1]; Table 16, Day 28", "value": 58.49, "unit": "%"}, {"measurement": "TGI (%)", "setting": "[1]; Table 16, Day 28", "value": 48.52, "unit": "%"}, {"measurement": "Tumor volume (mm^3) Day 0", "setting": "[1]; Table 16", "value": "151 ± 12", "unit": "mm^3"}, {"measurement": "Tumor volume (mm^3) Day 42", "setting": "[1]; Table 19, 3 mg/kg", "value": "302 mm^3 and 302 ± 73 mm^3"}, {"measurement": "T/C (%)", "setting": "[1]; Table 19, Day 42", "value": 27.69, "unit": "%"}, {"measurement": "TGI (%)", "setting": "[1]; Table 19, Day 42", "value": 84.60, "unit": "%"}, {"measurement": "Tumor volume (mm^3) Day 0", "setting": "[1]; Table 19", "value": "159 ± 11", "unit": "mm^3"}, {"measurement": "tumor growth inhibition (in words)", "setting": "[1]; effect example 3.1.1, compared with the control group", "value": "could significantly inhibit tumor growth"}, {"measurement": "tumor growth inhibition (in words)", "setting": "[1]; effect example 3.3.1, after 42 days", "value": "could significantly inhibit tumor growth"}, {"measurement": "Tumor volume (mm^3) Day 32", "setting": "[2]; Table 14, single dose", "value": "658 mm^3 and 658 ± 43 mm^3"}, {"measurement": "T/C (%)", "setting": "[2]; Table 14, single dose, Day 32", "value": 49.98, "unit": "%"}, {"measurement": "TGI (%)", "setting": "[2]; Table 14, single dose, Day 32", "value": 60.23, "unit": "%"}, {"measurement": "Tumor volume (mm^3) Day 0", "setting": "[2]; Table 14, single dose", "value": "228 ± 20", "unit": "mm^3"}, {"measurement": "Tumor volume (mm^3) Day 28", "setting": "[2]; Table 17", "value": "255 mm^3 and 255 ± 35 mm^3"}, {"measurement": "T/C (%)", "setting": "[2]; Table 17, Day 28", "value": 40.30, "unit": "%"}, {"measurement": "TGI (%)", "setting": "[2]; Table 17, Day 28", "value": 84.96, "unit": "%"}, {"measurement": "Tumor volume (mm^3) Day 0", "setting": "[2]; Table 17", "value": "188 ± 11", "unit": "mm^3"}, {"measurement": "Tumor volume (mm^3) Day 42", "setting": "[2]; Table 20", "value": "437 mm^3 and 437 ± 89 mm^3"}, {"measurement": "T/C (%)", "setting": "[2]; Table 20, Day 42", "value": 35.67, "unit": "%"}, {"measurement": "TGI (%)", "setting": "[2]; Table 20, Day 42", "value": 76.58, "unit": "%"}, {"measurement": "Tumor volume (mm^3) Day 0", "setting": "[2]; Table 20", "value": "196 ± 14", "unit": "mm^3"}, {"measurement": "tumor growth inhibition (in words)", "setting": "[2]; effect example 3.1.2, after 32 days", "value": "able to significantly inhibit tumor growth"}, {"measurement": "tumor growth inhibition (in words)", "setting": "[2]; effect example 3.2.2, after 28 days", "value": "can significantly inhibit NCI-N87 tumor growth"}, {"measurement": "tumor growth inhibition (in words)", "setting": "[2]; effect example 3.3.2, after 42 days", "value": "could significantly inhibit tumor growth"}, {"measurement": "Amount of cells (10^4) BxPC-3", "setting": "[3]; Table 4", "value": "10.88 10^4"}, {"measurement": "Amount of cells (10^4) HepG2", "setting": "[3]; Table 4", "value": "33.72 10^4"}, {"measurement": "Cell proportion (%) BxPC-3", "setting": "[3]; Table 4", "value": 24.4, "unit": "%"}, {"measurement": "Cell proportion (%) HepG2", "setting": "[3]; Table 4", "value": 75.6, "unit": "%"}, {"measurement": "Number of viable cells (10^4)", "setting": "[3]; Table 4, whole co-culture", "value": "44.6 10^4"}, {"measurement": "bystander killing effect (in words)", "setting": "[3]; effect example 1.1", "value": "had bystander killing effects"}, {"measurement": "Tumor volume (mm^3) Day 21", "setting": "[4]; Table 15, single dose, 5 mg/kg", "value": "8 ± 1", "unit": "mm^3"}, {"measurement": "T/C (%)", "setting": "[4]; [8]", "value": 0.48, "unit": "%"}, {"measurement": "TGI (%)", "setting": "[4]; [8]", "value": 111.60, "unit": "%"}, {"measurement": "Tumor volume (mm^3) Day 0", "setting": "[4]; Table 15, single dose, 5 mg/kg, baseline at grouping", "value": "171 ± 23", "unit": "mm^3"}, {"measurement": "tumor growth inhibition (in words)", "setting": "[4]; effect example 3.1.3, 5 mg/kg (ADC-1 also 10 mg/kg), after 21 days", "value": "able to significantly inhibit tumor growth"}, {"measurement": "Tumor volume (mm^3) Day 28", "setting": "[5]; Table 18, 3 mg/kg", "value": "28 mm^3 and 28 ± 14 mm^3"}, {"measurement": "T/C (%)", "setting": "[5]; Table 18, 3 mg/kg, Day 28", "value": 1.68, "unit": "%"}, {"measurement": "TGI (%)", "setting": "[5]; Table 18, 3 mg/kg, Day 28", "value": 106.11, "unit": "%"}, {"measurement": "Tumor volume (mm^3) Day 0", "setting": "[5]; Table 18, 3 mg/kg", "value": "123 ± 13", "unit": "mm^3"}, {"measurement": "Tumor volume (mm^3) Day 31", "setting": "[5]; Table 21, 2 mg/kg", "value": "296 mm^3 and 296 ± 125 mm^3"}, {"measurement": "T/C (%)", "setting": "[5]; Table 21, 2 mg/kg, Day 31", "value": 15.47, "unit": "%"}, {"measurement": "TGI (%)", "setting": "[5]; Table 21, 2 mg/kg, Day 31", "value": 90.15, "unit": "%"}, {"measurement": "Tumor volume (mm^3) Day 0", "setting": "[5]; Table 21, 2 mg/kg", "value": "119 ± 11", "unit": "mm^3"}, {"measurement": "tumor growth inhibition (in words)", "setting": "[5]; effect example 3.2.3, 3 mg/kg, after 28 days", "value": "could significantly inhibit FaDu tumor growth"}, {"measurement": "tumor growth inhibition (in words)", "setting": "[5]; effect example 3.3.3, 2 mg/kg, after 31 days", "value": "could significantly inhibit tumor growth"}, {"measurement": "IC50", "setting": "[6]", "value": 0.17, "unit": "nM"}, {"measurement": "IC50", "setting": "[7]", "value": 0.692, "unit": "nM"}]}
